According to US20230390384A1 (priority 2020, published 2023):

What was measured:
[1] = tested on: COVID-19 S1 antigen; assay type: in vivo, SARS-CoV-2; details: Example 2, FIG. 6a; 5 μg each S1 and RBD; L-pampo 75 μg Pam3CSK4 + 60 μg poly(I:C) vs Alum, Addavax, AddaS03; Balb/c mice i.m. twice at 3-week intervals, serum 2 weeks after second immunization
[2] = tested on: COVID-19 RBD antigen; assay type: in vivo, SARS-CoV-2; details: Example 2, FIG. 6b; 5 μg each S1 and RBD; L-pampo 75 μg Pam3CSK4 + 60 μg poly(I:C) vs Alum, Addavax, AddaS03; Balb/c mice i.m. twice at 3-week intervals, serum 2 weeks after second immunization
[3] = tested on: Mouse splenocytes; experiment: IFN-γ ELISPOT on splenocytes of immunized mice (cellular immune response); assay type: in vivo, Balb/c mice; details: Example 3, FIG. 11; test vaccine using only poly(I:C) as adjuvant, among all test vaccines

Substance | S1 antigen-specific antibody titer [1] | RBD antigen-specific antibody titer [2] | IFN-γ spot formation (ELISPOT) [3]
N-palmitoyl-S-[2,3-bis(palmitoyloxy)-(2RS)-propyl]-[R]-cystein-SKKKK [Pam3CSK4] | relatively superior | relatively superior | 
poly(I:C) |  |  | most IFN-γ spot formation
